For data set [1], the target named is T1, human platelet P2Y12 receptors (Homo sapiens, UniProt Q9H244).
T1 construct: Membranes were prepared from human outdated platelets from the blood bank; from tissue; host or cells: human platelets (University of Bonn blood bank), membrane preparation
Kind of data set: Radioligand binding assay with [3H]PSB-0413 at human platelet membranes. The procedure: Membranes were prepared from human outdated platelets from the blood bank. Outdated human platelets were obtained from the University of Bonn blood bank 4-5 days after donation. Platelet rich plasma was washed by centrifugation (10 min at 1000 g) in a buffer consisting of 50 mM Tris-HCl, pH 7.4, 5 mM EDTA and 150 mM NaCl. The supernatant was centrifuged twice (48400 g for 60 min) and the resultant platelet pellet were resuspended in 5 mM Tris-HCl (pH 7.4) containing 5 mM EDTA. The platelets were homogenized by a homogenizer. The final suspension was stored frozen as multiple aliquots at −80° C. until needed. Protein concentrations were determined by the method of Lowry using a Sigma Chemie protein assay kit.
Radioligand binding assays were performed using 5 nM [^3H]PSB-0413 and 100 μg of protein in Tris-HCl buffer 50 mM, pH 7.4, as previously described. (El-Tayeb, A., Griessmeier, K. J, Müller, C. E. Bioorg. Med. Chem. Lett. 2005, 15, 5450-52; Atzler, K. Doctoral Thesis, University of Bonn, 2006). Competition by 10 μM of test compound was initially determined. The mixture was incubated for 1 h at rt followed by filtration through GF/B filters. Nonspecific binding was determined with 1 mM ADP or 250 μM RB 2. […] At least three independent experiments were performed each in triplicate.
(§1) The data were analyzed using GraphPad Prism 4.0 (GraphPad Software, Inc., San Diego, Calif.).

The target in another data set is hP2Y4 Receptor (Homo sapiens, UniProt P51582). Put plainly: Inhibition of agonist-induced calcium mobilization, recombinant receptor in human astrocytoma cells. In kind it is cell-based. The settings on record: mean ± SEM. The procedure:
(§2) Inhibition of agonist-induced calcium mobilization was determined as previously described (Kaulich M. et al, Drug Dev. Res. 2003, 59, 72-81) using NG108-15 cells for the mouse P2Y2 receptor, or human recombinant P2Y receptors stably expressed in human astrocytoma cells (El-Tayeb, A. et al., J. Med. Chem. 2006, 49, 7076-87).
as §1

The target of a further data set is rP2Y6 Receptor (Rattus norvegicus, UniProt Q63371). Described as above. Format: cell-based. The settings on record: mean ± SEM. How it is done:
as §2, §1

Where [2] appears, read: human platelet membranes, 5 nM [3H]PSB-0413, 1 h at rt, mean ± SEM, read-out: hP2Y12 Receptor Ki [μM ± SEM] vs. [3H]PSB-0413.

Read-outs that look alike come from different tables or passages of the source.

T1 sequence (Q9H244 whole entry): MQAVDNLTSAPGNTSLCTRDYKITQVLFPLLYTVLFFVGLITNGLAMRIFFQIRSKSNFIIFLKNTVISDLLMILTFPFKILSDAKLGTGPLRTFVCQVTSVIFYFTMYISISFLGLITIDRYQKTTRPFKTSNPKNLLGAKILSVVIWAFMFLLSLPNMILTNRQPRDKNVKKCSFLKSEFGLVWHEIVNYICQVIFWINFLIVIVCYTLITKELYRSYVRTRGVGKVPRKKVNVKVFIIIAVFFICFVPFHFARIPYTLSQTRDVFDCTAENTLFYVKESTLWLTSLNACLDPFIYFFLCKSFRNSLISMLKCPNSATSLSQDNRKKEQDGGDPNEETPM
rP2Y6 Receptor, sequence (Q63371 whole entry): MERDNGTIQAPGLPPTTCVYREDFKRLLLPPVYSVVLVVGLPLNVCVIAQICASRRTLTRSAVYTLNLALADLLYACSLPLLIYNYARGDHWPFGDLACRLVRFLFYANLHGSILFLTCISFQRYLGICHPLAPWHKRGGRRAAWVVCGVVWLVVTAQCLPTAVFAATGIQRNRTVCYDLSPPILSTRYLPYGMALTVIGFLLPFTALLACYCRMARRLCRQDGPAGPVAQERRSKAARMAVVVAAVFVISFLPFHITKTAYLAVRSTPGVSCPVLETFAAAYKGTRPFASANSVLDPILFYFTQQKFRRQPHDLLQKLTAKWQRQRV
hP2Y4 Receptor, sequence (P51582 whole entry): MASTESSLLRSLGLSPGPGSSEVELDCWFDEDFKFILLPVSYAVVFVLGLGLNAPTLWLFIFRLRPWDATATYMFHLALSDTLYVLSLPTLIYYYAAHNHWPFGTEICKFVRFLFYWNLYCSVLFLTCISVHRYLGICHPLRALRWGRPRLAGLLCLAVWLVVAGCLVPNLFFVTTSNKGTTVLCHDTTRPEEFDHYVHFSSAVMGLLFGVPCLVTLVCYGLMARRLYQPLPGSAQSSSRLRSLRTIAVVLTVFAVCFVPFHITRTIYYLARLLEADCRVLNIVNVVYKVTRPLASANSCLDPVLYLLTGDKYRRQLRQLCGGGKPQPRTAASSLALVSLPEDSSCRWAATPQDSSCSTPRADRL

The term melting point denotes the temperature of the solid-liquid transition. `Nc1c(S(=O)(=O)[O-])cc(Nc2ccccc2O)c2c1C(=O)c1ccccc1C2=O.[Na+]` returned a melting point of over 300 °C. The molecule `Nc1c(S(=O)(=O)[O-])cc(Nc2ccc(O)cc2)c2c1C(=O)c1ccccc1C2=O.[Na+]` had a melting point of over 300 °C. Same read-out and setting: the same measure for `Nc1ccc(Nc2cc(S(=O)(=O)[O-])c(N)c3c2C(=O)c2ccccc2C3=O)cc1.[Na+]`: over 300 °C; for `Nc1cc(Nc2cc(S(=O)(=O)[O-])c(N)c3c2C(=O)c2ccccc2C3=O)cc(C(=O)O)c1.[Na+]`: over 300 °C; for `Nc1c(S(=O)(=O)[O-])cc(Nc2ccc(S(=O)(=O)[O-])cc2)c2c1C(=O)c1ccccc1C2=O.[Na+].[Na+]`: over 300 °C. Still for that read-out and setting: the same measure for `Nc1cccc(Nc2cc(S(=O)(=O)[O-])c(N)c3c2C(=O)c2ccccc2C3=O)c1.[Na+]`: over 300 °C. The same measure, in the same setting: the same measure for `Nc1c(S(=O)(=O)[O-])cc(Nc2cc(Cl)ccc2C(=O)O)c2c1C(=O)c1ccccc1C2=O.[Na+]`: over 300 °C; for `Nc1c(S(=O)(=O)[O-])cc(Nc2ccccc2C(=O)O)c2c1C(=O)c1ccccc1C2=O.[Na+]`: over 300 °C. The Ki is the dissociation constant of the complex between target and ligand, obtained from inhibition or displacement. For orientation: IC50 means the concentration needed to halve the response being measured. For `Nc1c(S(=O)(=O)O)cc(Nc2cccc(S(=O)(=O)O)c2)c2c1C(=O)c1ccccc1C2=O` [Entry 1], the Ki in data set [1] (setting [2]) was 3.81 ± 1.08 µM. The IC50 was 18.5 ± 2.5 µM at hP2Y4 Receptor and about 100 µM at rP2Y6 Receptor. On to `Nc1c(S(=O)(=O)O)cc(Nc2ccc(S(=O)(=O)O)cc2)c2c1C(=O)c1ccccc1C2=O` [Entry 2], for which the Ki in data set [1] (setting [2]) was determined as 3.13 ± 0.39 µM. For the molecule `Nc1cc(Nc2cc(S(=O)(=O)O)c(N)c3c2C(=O)c2ccccc2C3=O)ccc1S(=O)(=O)O` [Entry 4], the Ki in data set [1] (setting [2]) came to 2.1 ± 0.47 µM. On the same count and under the same terms, then `Nc1cc(Nc2cc(S(=O)(=O)O)c(N)c3c2C(=O)c2ccccc2C3=O)cc(C(=O)O)c1` [Entry 6], with 7.07 ± 1.7 µM; and `Nc1c(S(=O)(=O)O)cc(Nc2cc(Cl)ccc2C(=O)O)c2c1C(=O)c1ccccc1C2=O` [Entry 7], with 12.2 ± 0.3 µM; and `Nc1c(S(=O)(=O)O)cc(Nc2ccccc2C(=O)O)c2c1C(=O)c1ccccc1C2=O` [Entry 8], with 25.1 ± 7 µM. For `Nc1ccc(Nc2cc(S(=O)(=O)O)c(N)c3c2C(=O)c2ccccc2C3=O)c(S(=O)(=O)O)c1` [Entry 9], in data set [1] (setting [2]), the Ki came to 19.7 ± 8.27 µM. For `Nc1c(S(=O)(=O)O)cc(Nc2ccc(Cl)cc2C(=O)O)c2c1C(=O)c1ccccc1C2=O` [Entry 10], in data set [1] (setting [2]), the Ki worked out at 12.3 ± 1.7 µM. With `Nc1c(S(=O)(=O)O)cc(Nc2ccccc2O)c2c1C(=O)c1ccccc1C2=O` [Entry 11], the Ki in data set [1] (setting [2]) was about 10 µM.

For `Nc1c(S(=O)(=O)O)cc(Nc2ccc(O)cc2)c2c1C(=O)c1ccccc1C2=O` [Entry 12], in data set [1] (setting [2]), the Ki was about 10 µM. Still for that read-out and setting: then `Nc1c(S(=O)(=O)O)cc(Nc2ccc(Cc3ccccc3)cc2)c2c1C(=O)c1ccccc1C2=O` [Entry 13], with 0.614 µM; and `Nc1cccc(Nc2cc(S(=O)(=O)O)c(N)c3c2C(=O)c2ccccc2C3=O)c1` [Entry 14], with over 10 µM.

In the case of `Nc1c(S(=O)(=O)O)cc(Nc2ccc(Sc3ccccc3)cc2)c2c1C(=O)c1ccccc1C2=O` [Entry 19], the Ki in data set [1] (setting [2]) came to 0.884 ± 0.525 µM. Consider `COc1ccc(CCNc2cc(S(=O)(=O)O)c(N)c3c2C(=O)c2ccccc2C3=O)cc1OC` [Entry 21], for which the IC50 is over 30 µM on hP2Y4 Receptor and over 100 µM at rP2Y6 Receptor. `Nc1c(S(=O)(=O)O)cc(Nc2ccc(Oc3ccccc3)c(S(=O)(=O)O)c2)c2c1C(=O)c1ccccc1C2=O` [Entry 22]: in data set [1] (setting [2]), the Ki turned out to be 0.063 ± 0.009 µM. Turning to `Nc1c(S(=O)(=O)O)cc(Nc2ccc(Nc3ccccc3)c(S(=O)(=O)O)c2)c2c1C(=O)c1ccccc1C2=O` [Entry 24], the Ki in data set [1] (setting [2]) was 0.0249 ± 0.0032 µM. The same measure, in the same setting: then `Cc1cc(Nc2ccc(Nc3ccccc3)c(S(=O)(=O)O)c2)c2c(c1N)C(=O)c1ccccc1C2=O` [Entry 30], with 0.541 µM.

In data set [1], `Nc1c(S(=O)(=O)O)cc(Nc2ccc(S(=O)(=O)O)c(Nc3nc(Cl)nc(Cl)n3)c2)c2c1C(=O)c1ccccc1C2=O` [Entry 31] yielded a Ki of 17.1 ± 7.8 µM. For `Nc1c(S(=O)(=O)O)cc(Nc2ccc(Nc3nc(Cl)nc(Cl)n3)c(S(=O)(=O)O)c2)c2c1C(=O)c1ccccc1C2=O` [Entry 32], in data set [1] (setting [2]), the Ki came to 2.45 ± 1 µM.

In the case of `Nc1c(S(=O)(=O)O)cc(Nc2cc(Nc3nc(Cl)nc(Cl)n3)cc(C(=O)O)c2)c2c1C(=O)c1ccccc1C2=O` [Entry 34], the Ki in data set [1] (setting [2]) was determined as 3.76 ± 1.03 µM.

Consider `Nc1c(S(=O)(=O)O)cc(Nc2ccc(Nc3nc(Cl)nc(Cl)n3)cc2)c2c1C(=O)c1ccccc1C2=O` [Entry 35], for which, in data set [1] (setting [2]), the Ki was 1.9 ± 0.24 µM. Still for that read-out and setting: the same measure for `Nc1c(S(=O)(=O)O)cc(Nc2ccc(Nc3ncccn3)cc2)c2c1C(=O)c1ccccc1C2=O` [Entry 36]: about 10 µM; for `Nc1c(S(=O)(=O)O)cc(Nc2ccc(Nc3nc(O)nc(O)n3)c(S(=O)(=O)O)c2)c2c1C(=O)c1ccccc1C2=O` [Entry 38]: about 10 µM; for `Nc1c(S(=O)(=O)O)cc(Nc2ccc(Nc3nc(O)nc(O)n3)cc2S(=O)(=O)O)c2c1C(=O)c1ccccc1C2=O` [Entry 39]: over 10 µM. Take `Nc1c(S(=O)(=O)[O-])cc(Nc2cccc(C(=O)O)c2)c2c1C(=O)c1ccccc1C2=O.[Na+]` [Example 3, Sodium 1-amino-4-(3-carboxyphenylamino)-9,10-dioxo-9,10-dihydroanthracene 2-sulfonate]: the melting point was over 300 °C. The same measure, in the same setting: then `Nc1c(S(=O)(=O)[O-])cc(Nc2ccc(C(=O)O)cc2)c2c1C(=O)c1ccccc1C2=O.[Na+]` [Example 4, Sodium 1-amino-4-(4-carboxyphenylamino)-9,10-dioxo-9,10-dihydroanthracene 2-sulfonate], with over 300 °C; and `Nc1ccccc1Nc1cc(S(=O)(=O)[O-])c(N)c2c1C(=O)c1ccccc1C2=O.[Na+]` [Example 5, Sodium 1-amino-4-(2-aminophenylamino)-9,10-dioxo-9,10-dihydroanthracene 2-sulfonate], with over 300 °C. `Nc1c(S(=O)(=O)[O-])cc(Nc2ccc(CC(=O)O)cc2)c2c1C(=O)c1ccccc1C2=O.[Na+]` [Example 15, Sodium 1-amino-4-(4-carboxymethylphenylamino)-9,10-dioxo-9,10-dihydro-anthracene 2-sulfonate] registered a melting point of over 300 °C. `COc1cccc(Nc2cc(S(=O)(=O)[O-])c(N)c3c2C(=O)c2ccccc2C3=O)c1.[Na+]` [Example 18, Sodium 1-amino-4-(3-methoxyphenylamino)-9,10-dioxo-9,10-dihydroanthracene 2-sulfonate]: the melting point was over 300 °C. On the same count and under the same terms, then `COc1ccc(Nc2cc(S(=O)(=O)[O-])c(N)c3c2C(=O)c2ccccc2C3=O)cc1.[Na+]` [Example 19, Sodium 1-amino-4-(4-methoxyphenylamino)-9,10-dioxo-9,10-dihydroanthracene 2-sulfonate], with over 300 °C; and `Nc1c(S(=O)(=O)[O-])cc(Nc2ccc(F)cc2)c2c1C(=O)c1ccccc1C2=O.[Na+]` [Example 20, Sodium 1-amino-4-(4-fluorophenylamino)-9,10-dioxo-9,10-dihydroanthracene 2-sulfonate], with over 300 °C. `Nc1c(S(=O)(=O)[O-])cc(Nc2cccc(Br)c2)c2c1C(=O)c1ccccc1C2=O.[Na+]` [Example 21, Sodium 1-amino-4-(3-bromophenylamino)-9,10-dioxo-9,10-dihydroanthracene 2-sulfonate] yielded a melting point of over 300 °C. The molecule `Cc1cc(C)cc(Nc2cc(S(=O)(=O)[O-])c(N)c3c2C(=O)c2ccccc2C3=O)c1.[Na+]` [Example 22, Sodium 1-amino-4-(3,5-dimethylphenylamino)-9,10-dioxo-9,10-dihydroanthracene 2-sulfonate] registered a melting point of over 300 °C. Regarding `Cc1c(N)cccc1Nc1cc(S(=O)(=O)[O-])c(N)c2c1C(=O)c1ccccc1C2=O.[Na+]` [Example 24, Sodium 1-amino-4-(3-amino-2-methylphenylamino)-9,10-dioxo-9,10-dihydroanthracene 2-sulfonate], the melting point is over 300 °C.

In turn, `Nc1c(S(=O)(=O)[O-])cc(Nc2ccc(O)c(C(=O)O)c2)c2c1C(=O)c1ccccc1C2=O.[Na+]` [Example 25, Sodium 1-amino-4-(3-carboxy-4-hydroxyphenylamino)-9,10-dioxo-9,10-dihydroanthracene 2-sulfonate] came in with a melting point of over 300 °C. Same read-out and setting: the same measure for `Nc1c(S(=O)(=O)[O-])cc(Nc2ccccc2S(=O)(=O)[O-])c2c1C(=O)c1ccccc1C2=O.[Na+].[Na+]` [Example 26, Disodium 1-amino-4-(2-sulfophenylamino)-9,10-dioxo-9,10-dihydroanthracene 2-sulfonate]: over 300 °C.

These data come from patent US20100210654A1, “NOVEL P2Y12 RECEPTOR ANTAGONISTS” (RHEINISCHE FRIEDRICH-WILHELMS UNIVERSITÄT BONN, priority 2007, published 2010).
